Assay results: patent publication US10624908B2, “Phosphopantetheine compounds alone or in combination with HMG-CoA reductase inhibitors for lowering serum cholesterol and serum triglicerides” (COMET THERAPEUTICS, INC., priority 2014, dated 2020)

What was measured:
[1] = 3 h, 10 μM
Experimental: Materials and Methods: CoA (purchased from Sigma) was incubated at a final concentration of 10 μM human serum for 6 hours at 37° C. After incubation, the samples were processed to remove proteins and HPLC analysis was used to assess the amount of remaining compound CoA and amount of generated 4′-phosphopantetheine, indicating conversion of CoA to 4′-phosphopantetheine.

[2] = 400 U Coenzyme A/day for 3 weeks combined with statins, oral; cited from earlier work
[3] = test system: HEK293 cells; test: Rescue potential of CoA and 4′-phosphopantetheine in HOPAN assay; format: cell-based, mammalian; details: HOPAN 0.5 mM, 250 μM compound, 4 days
Experimental: Mammalian HEK293 cells treated with the chemical inhibitor HOPAN (hopanthenate, CAS 17097-76-6, IUPAC: calcium 4-[[(2R)-2,4-dihydroxy-3,3-dimethylbutanoyl]amino]butanoate). Cells treated with HOPAN show a reduction in intracellular CoA levels, which induces a decrease in cell viability.
Materials and Methods: HEK293 cells were cultured in vitamin B5 deficient DMEM (Thermo Scientific) supplemented with 10% dialysed FCS (Thermo Scientific) with and without HOPAN (0.5 mM) and CoA and 4′-phosphopantetheine for 4 days. 250 μM of CoA and 4′-phosphopantetheine was used for determination of rescue efficiency.

[4] = patients with moderate dyslipidemia; cited from earlier work
[5] = Translocation through cell membranes / uptake by cells; format: cell-based
[6] = Conversion of CoA into 4′-phosphopantetheine in human serum (HPLC)

SMILES	CoA degraded in human serum [1] [%]	toxicity [2]	rescue of HOPAN induced cell count defect ([3]; FIG. 2)	rescue of HOPAN induced decrease of intracellular CoA levels ([3]; FIG. 3)	plasma triglyceride levels [4]	translocation through cell membranes / uptake by cells [5]	stability in human serum ([6]; human serum over 6 hours incubation)	concentrations of 4′-phosphopantetheine generated from CoA in human serum ([6]; human serum, 37° C., 6 hours incubation of CoA, HPLC)	rescue of HOPAN induced cell count defect ([3]; FIG. 2, listed as 4PPT)	rescue of HOPAN induced decrease of intracellular CoA levels ([3]; FIG. 3, listed as 4PPT)
CC(C)(COP(=O)(O)OP(=O)(O)OC[C@H]1O[C@@H](n2cnc3c(N)ncnc32)[C@H](O)[C@@H]1OP(=O)(O)O)[C@@H](O)C(=O)NCCC(=O)NCCS [CoA, Coenzyme A, reference compound]	60	no toxicity was observed	rescued the cell count defect	significantly rescued	effectively reduce plasma triglyceride levels	cells do not absorb CoA directly	–	–	–	–
CC(C)(COP(=O)(O)O)[C@@H](O)C(=O)NCCC(=O)NCCS [4′-phosphopantetheine]	–	–	rescued the cell count defect	significantly rescued	–	able to effectively translocate through cell membranes	stable	observed to increase	as potent as CoA	as potent as CoA
